# Tested on: not given
# Assay: not given
# Conditions: not given
row,melting point [°C],Structure (SMILES)
1,146 to 147.5,"COCCOc1ccc(/C=C/C(=O)NS(=O)(=O)CC(F)(F)F)c(Oc2ncc(C(F)(F)F)cc2Cl)c1 [Example 246, (2E)-3-[2-{[3-chloro-5-(trifluoromethyl)pyridin-2-yl]oxy}-4-(2-methoxyethoxy)phenyl]-N-[(2,2,2-trifluoroethyl)sulfonyl]acrylamide]"
2,103 to 105,"CCCCCS(=O)(=O)NC(=O)/C=C/c1ccc(OCCCOCCOC)cc1Oc1ncc(C(F)(F)F)cc1Cl [Example 254, (2E)-3-{2-{[3-chloro-5-(trifluoromethyl)pyridin-2-yl]oxy}-4-[3-(2-methoxyethoxy)propoxy]phenyl}-N-(pentylsulfonyl)acrylamide]"
3,124 to 125,"CCCCCS(=O)(=O)NC(=O)/C=C/c1ccc(OCCCOCC2CC2)cc1Oc1ncc(C(F)(F)F)cc1Cl [Example 259, (2E)-3-{2-{[3-chloro-5-(trifluoromethyl)pyridin-2-yl]oxy}-4-[3-(cyclopropylmethoxy)propoxy]phenyl}-N-(pentylsulfonyl)acrylamide]"
4,96.5 to 97.5,"CCCCCS(=O)(=O)NC(=O)CCc1ccc(OCCC2(C)OCCO2)cc1Oc1ncc(C(F)(F)F)cc1Cl [Example 425, 3-{2-{[3-chloro-5-(trifluoromethyl)pyridin-2-yl]oxy}-4-[2-(2-methyl-1,3-dioxolan-2-yl)ethoxy]phenyl}-N-(pentylsulfonyl)propanamide]"
5,153.2 to 153.8,"COCCOc1ccc(CCCOC(=O)NS(N)(=O)=O)c(Oc2ncc(Cl)cc2Cl)c1 [Example 426, 3-[2-[(3,5-dichloropyridin-2-yl)oxy]-4-(2-methoxyethoxy)phenyl]propyl (aminosulfonyl)carbamate]"
6,87.9 to 89,"COCCCNS(=O)(=O)NC(=O)OCCCc1ccc(OCCOC)cc1Oc1ncc(Cl)cc1Cl [Example 428, 3-[2-[(3,5-dichloropyridin-2-yl)oxy]-4-(2-methoxyethoxy)phenyl]propyl {[(3-methoxypropyl)amino]sulfonyl}carbamate]"
7,98 to 100,"COCCCNS(=O)(=O)NC(=O)OC/C=C/c1ccc(OCCOC)cc1Oc1ncc(C(F)(F)F)cc1Cl [Example 432, (2E)-3-[2-{[3-chloro-5-(trifluoromethyl)pyridin-2-yl]oxy}-4-(2-methoxyethoxy)phenyl]prop-2-en-1-yl {[(3-methoxypropyl)amino]sulfonyl}carbamate]"
8,154 to 156,"COCCOc1ccc(/C=C/COC(=O)NS(=O)(=O)NCCN2CCCC2)c(Oc2ncc(C(F)(F)F)cc2Cl)c1 [Example 434, (2E)-3-[2-{[3-chloro-5-(trifluoromethyl)pyridin-2-yl]oxy}-4-(2-methoxyethoxy)phenyl]prop-2-en-1-yl {[(2-pyrrolidin-1-ylethyl)amino]sulfonyl}carbamate]"
9,113 to 114,"COCCOc1ccc(/C=C/COC(=O)NS(=O)(=O)NCCc2ccccc2)c(Oc2ncc(C(F)(F)F)cc2Cl)c1 [Example 435, (2E)-3-[2-{[3-chloro-5-(trifluoromethyl)pyridin-2-yl]oxy}-4-(2-methoxyethoxy)phenyl]prop-2-en-1-yl {[(2-phenylethyl)amino]sulfonyl}carbamate]"
10,187 to 188,"CCCCCS(=O)(=O)NC(=O)/C=C/c1ccc(OCC(C)=O)cc1Oc1ncc(C(F)(F)F)cc1Cl [Example 452, (2E)-3-[2-{[3-chloro-5-(trifluoromethyl)pyridin-2-yl]oxy}-4-(2-oxopropoxy)phenyl]-N-(pentylsulfonyl)acrylamide]"
11,101 to 103,"CCCCCS(=O)(=O)NC(=O)/C=C/c1ccc(OCC(COC(C)C)OC(C)=O)cc1Oc1ncc(C(F)(F)F)cc1Cl (centres unmarked) [Example 455, 2-(3-{[3-chloro-5-(trifluoromethyl)pyridin-2-yl]oxy}-4-{(1E)-3-oxo-3-[(pentylsulfonyl)amino]prop-1-en-1-yl}phenoxy)-1-(isopropoxymethyl)ethyl acetate]"
12,86 to 88,"CCCCCS(=O)(=O)NC(=O)/C=C/c1ccc(OCC(O)COC(C)C)cc1Oc1ncc(C(F)(F)F)cc1Cl (centres unmarked) [Example 456, (2E)-3-[2-{[3-chloro-5-(trifluoromethyl)pyridin-2-yl]oxy}-4-(2-hydroxy-3-isopropoxypropoxy)phenyl]-N-(pentylsulfonyl)acrylamide]"
13,189 to 190,"CCCCCS(=O)(=O)NC(=O)/C=C/c1ccc(C)n1Cc1ccc(Cl)cc1Cl [Example 457, (2E)-3-[1-(2,4-dichlorobenzyl)-5-methyl-1H-pyrrol-2-yl]-N-(pentylsulfonyl)acrylamide]"
14,170 to 171,"CCCCCS(=O)(=O)NC(=O)/C=C/c1c(C)cc(C)n1Cc1ccc(Cl)cc1Cl [Example 458, (2E)-3-[1-{2,4-dichlorobenzyl)-3,5-dimethyl-1H-pyrrol-2-yl]-N-(pentylsulfonyl)acrylamide]"
15,159.8 to 160.2,"CCCCCS(=O)(=O)NC(=O)/C=C/c1ccc(OCCOC)cc1Oc1ncc(Br)cc1C [Example 460, (2E)-3-[2-[(5-bromo-3-methylpyridin-2-yl)oxy]-4-(2-methoxyethoxy)phenyl]-N-(pentylsulfonyl)acrylamide]"
16,187.9 to 188.2,"CCCCCS(=O)(=O)NC(=O)/C=C/c1ccc(OCCOC)cc1Oc1ncc(NC(C)=O)cc1C [Example 463, (2E)-3-[2-{[5-(acetylamino)-3-methylpyridin-2-yl]oxy}-4-(2-methoxyethoxy)phenyl]-N-(pentylsulfonyl)acrylamide]"
17,94.6 to 94.8,"CCOC(=O)c1cnc(Oc2cc(OCCOC)ccc2CCCOC(=O)NCC2CC2)c(Cl)c1 [Example 465, ethyl 5-chloro-6-[2-[3-({[(cyclopropylmethyl)amino]carbonyl}oxy)propyl]-5-(2-methoxyethoxy)phenoxy]nicotinate]"
18,132.8 to 133.5,"CCCCCS(=O)(=O)NC(=O)/C=C/c1ccc(OCCOC)cc1Oc1ncc(-c2ccccc2)cc1C [Example 467, (2E)-3-{4-(2-methoxyethoxy)-2-[(3-methyl-5-phenylpyridin-2-yl)oxy]phenyl}-N-(pentylsulfonyl)acrylamide]"
19,126 to 128,"C/C(=C\c1ccc(OC(C)C)cc1Oc1ncc(C(F)(F)F)cc1Cl)C(=O)NS(=O)(=O)NCc1cnc(C)cn1 [Example 470, (2E)-3-(2-{[3-chloro-5-(trifluoromethyl)pyridin-2-yl]oxy}-4-isopropoxyphenyl)-2-methyl-N-({[(5-methylpyrazin-2-yl)methyl]amino}sulfonyl)acrylamide]"
20,121 to 123,"C/C(=C\c1ccc(OC(C)C)cc1Oc1ncc(C(F)(F)F)cc1Cl)C(=O)NS(=O)(=O)NCCc1ccccn1 [Example 471, (2E)-3-(2-{[3-chloro-5-(trifluoromethyl)pyridin-2-yl]oxy}-4-isopropoxyphenyl)-2-methyl-N-{[(2-pyridin-2-ylethyl)amino]sulfonyl}acrylamide]"
21,67.4 to 68,"COCCCOc1ccc(CCCOC(=O)NS(=O)(=O)NCCOC(C)C)c(Oc2ncc(C(F)(F)F)cc2Cl)c1 [Example 474, 3-[2-{[3-chloro-5-(trifluoromethyl)pyridin-2-yl]oxy}-4-(3-methoxypropoxy)phenyl]propyl {[(2-isopropoxyethyl)amino]sulfonyl}carbamate]"
22,111.1 to 113,"C=CCCOc1ccc(CCCOC(=O)NS(=O)(=O)NCCOC(C)C)c(Oc2ncc(C(F)(F)F)cc2Cl)c1 [Example 475, 3-(4-(but-3-en-1-yloxy)-2-{[3-chloro-5-(trifluoromethyl)pyridin-2-yl]oxy}phenyl)propyl {[(2-isopropoxyethyl)amino]sulfonyl}carbamate]"
23,118 to 119.8,"CC(C)OCCNS(=O)(=O)NC(=O)OCCCc1ccc(OCc2ccco2)cc1Oc1ncc(C(F)(F)F)cc1Cl [Example 476, 3-[2-{[3-chloro-5-(trifluoromethyl)pyridin-2-yl]oxy}-4-(2-furylmethoxy)phenyl]propyl {[(2-isopropoxyethyl)amino]sulfonyl}carbamate]"

row,Structure (SMILES),melting point [°C]
1,"CCCCOc1ccc(CCCOC(=O)NS(=O)(=O)NCCOC(C)C)c(Oc2ncc(C(F)(F)F)cc2Cl)c1 [Example 473, 3-(4-butoxy-2-{[3-chloro-5-(trifluoromethyl)pyridin-2-yl]oxy}phenyl)propyl {[(2-isopropoxyethyl)amino]sulfonyl}carbamate]",91.4 to 91.6

# Tested on: KKAy mice
# Assay: Blood glucose and blood lipid (triglyceride) lowering action in mice
# Format: in vivo
# Conditions: Mus musculus, 4TO7, po, 0.03% in powder diet, 4 to 7 days, plasma glucose relative to non-administration group = 100%, read-out: hypoglycemic action (%)
# Excerpt: The test compound was mixed with a powder diet (CE-2, CLEA JAPAN, INC.) at a proportion of 0.01% (0.03% for the compounds of Examples 1, 2, 12, 81, 94, 96, 129 and 143, and 0.005% for the compounds of Examples 28, 30 and 37) and freely given to KKAy mice (9 to 14-week-old, 5 mice per group) which are obesity non-insulin-dependent diabetes (type-2 diabetes) models, for 4 to 7 days. During this period, water was freely given. The blood was drawn from the orbital venous plexus. Glucose and triglyceride in the plasma separated from the blood were quantitated using L Type Wako Glu2 (Wako Pure Chemical Industries, Ltd.) and L Type Wako TG·H (Wako Pure Chemical Industries, Ltd.), respectively, according to an enzyme method.
row,Structure (SMILES),response vs control in vivo at 0.03 % [%]
1,"CCCCCS(=O)(=O)NC(=O)CCc1cc(OC(C)C)nn1Cc1ccc(C(F)(F)F)cc1Cl [Example 143, 3-{1-[2-chloro-4-(trifluoromethyl)benzyl]-3-isopropoxy-1H-pyrazol-5-yl}-N-(pentylsulfonyl)propanamide]",47

# Same assay, conditions: Mus musculus, 4TO7, po, 0.03% in powder diet, 4 to 7 days, plasma triglyceride relative to non-administration group = 100%, read-out: hypolipidemic action (%)
row,Structure (SMILES),response vs control in vivo at 0.03 % [%]
1,"CCCCCS(=O)(=O)NC(=O)CCc1cc(OC(C)C)nn1Cc1ccc(C(F)(F)F)cc1Cl [Example 143, 3-{1-[2-chloro-4-(trifluoromethyl)benzyl]-3-isopropoxy-1H-pyrazol-5-yl}-N-(pentylsulfonyl)propanamide]",76

# Source: patent publication US20100041892A1, “Therapeutic agent for diabetes” (priority 2005, published 2010)
